Source: article PMC4434909, “In vitro properties of designed antimicrobial peptides that exhibit potent antipneumococcal activity and produces synergism in combination with penicillin” (Scientific Reports, 2015)

Assays:
human erythrocytes = assay: Hemolytic activity; format: cell-based
Experimental: Hemolytic assay was performed as described. Freshly drawn human erythrocytes were rinsed three times with PBS and resuspended in PBS to 4% (v/v). One hundred microliters of the suspension was added to 96-well microtiter plate containing equal volume of peptides to give final concentrations of peptides encompassing the range of 1.96–250 μg/ml. PBS and 0.1% (v/v) Triton-X 100 were used as 0% and 100% hemolytic control respectively. Plates were incubated at 37°C for 1 hr. Subsequently, the plate was centrifuged and the supernatant was transferred to a new plate. The release of hemoglobin in the supernatant was monitored at absorbance of 450 nm using Glomax Multidetection system (Promega, USA). Results were pooled from three independent experiments and expressed as mean ± SD. HC10 and HC50 were defined as the peptide concentrations causing 10% and 50% hemolysis on human erythrocytes, respectively. Hmax was the percentage hemolysis observed at the maximum concentration as defined throughout this study (all peptides 250 μg/ml, PEN 4 μg/ml).

NL20 cell line = assay: Cytotoxicity against human cell lines (CellTiter 96 AQueous); format: cell-based
Experimental: (§1) Both the NL20 human lung bronchial normal epithelial cell line and the A549 human lung alveolar adenocarcinoma epithelial cell line were used for cell cytotoxicity tests. Besides investigating the cytotoxicity of peptides, differences in cell viability between the two cell lines can be used to evaluate the cell line selectivity and to assess potential anticancer potential of the peptides. NL20 cell line was grown in Ham's F12 medium and A549 cell line was grown in Roswell Park Memorial Institute medium. Both media were supplemented with fetal bovine serum to 10% (v/v) as growth medium or 2% (v/v) as maintenance medium in cell cytotoxicity testing. The assay was performed as described by Lee et al.[26]. NL20 cells was seeded overnight at 3 × 10^4 cells/well in 96-well cell culture-treated flat bottom microtiter plate and treated with serial dilutions of peptide at a final concentration of 1.95–250 μg/ml. PEN was tested from 0.03–4 μg/ml, the same range used to classify the susceptibility of pneumococcal isolates in this study. Test using A549 cells followed the same procedures with 1 × 10^4 cells/well. Plates were incubated at 37°C under 5% CO2 for 24, 48, and 72 hrs. Cell viability was detected by using CellTiter 96® AQueous Non-Radioactive Cell Proliferation assay (Promega, USA) and the colorimetric changes were read with Glomax multidetection system (Promega, USA) at OD 490 nm. Results were pooled from three independent experiments and expressed as mean ± SD. […] Imax was the percentage of cell viable treated with peptides/PEN at the maximum concentration as defined throughout this study (all peptides 250 μg/ml, PEN 4 μg/ml).

A549 cell line = assay: as above; format: cell-based
Experimental: as §1

PRSP, PISP, and PSSP = format: cell-based, Streptococcus pneumoniae; details: 30 min post treatment, 2× MIC, 5 × 10^6 CFU/ml in CAMHB, plate count, relative to untreated control
Experimental: This assay was performed to evaluate the killing kinetics of peptides. One PRSP, PISP, and PSSP isolate were each grown and prepared to 5 × 10^6 CFU/ml. Each isolate in CAMHB was challenged with peptides at two times the respective MIC values. At the indicated time intervals (0, 30, 60, 120, 150, 180, 210, and 240 min; “0” indicate pretreatment), 10 μl of suspension was removed and immediately serially diluted in cold phosphate-buffered saline to arrest further reaction before spread-plated on MHA to obtain viable colony counts. The percentage cell recovered was calculated by dividing the surviving CFU of the treated cells over the surviving CFU of the untreated control cells at the respective time points. Results were pooled from three independent experiments and expressed as mean ± standard deviation (SD).

penicillin [reference compound] was tested, and the HC10 (human erythrocytes) was >4 µg/mL, the HC50 (human erythrocytes) was >4 µg/mL and the “IC50, NL20 cell line, 24 hrs” value (NL20 cell line) was >4 µg/mL. For the same substance, the “IC50, NL20 cell line, 48 hrs” value (NL20 cell line) was >4 µg/mL, the “IC50, NL20 cell line, 72 hrs” value (NL20 cell line) was >4 µg/mL and the “Imax, NL20 cell line, 24 hrs” value (NL20 cell line) was 105.2 ± 0.2%. For the same substance, the “Imax, NL20 cell line, 48 hrs” value (NL20 cell line) was 106.1 ± 6.2%, the “Imax, NL20 cell line, 72 hrs” value (NL20 cell line) was 88.3 ± 0.4% and the “IC50, A549 cell line, 24 hrs” value (A549 cell line) was >4 µg/mL. For the same substance, the “IC50, A549 cell line, 48 hrs” value (A549 cell line) was >4 µg/mL, the “IC50, A549 cell line, 72 hrs” value (A549 cell line) was >4 µg/mL and the “CFU recovered (viability), all three groups of pneumococci” value (PRSP, PISP, and PSSP) was 60–78%.
